Organism: Rattus norvegicus
Assay: Open TG-GATES - Regimen: Daily Repeat
Assay type: toxicity, organism-based, Sprague-Dawley
Set-up: regimen Daily Repeat, gender Male, age 6 weeks
Conditions: in vivo, po, 0 mg/kg, route gavage, dose level Control; for APTT / Bas / Eos / Fbg / Hb / Ht / Lym / MCH / MCHC / MCV / Mono / Neu / PT / Plat / RBC / Ret / WBC: tissue Blood; for KIDNEY_L / KIDNEY_R / KIDNEY_TOTAL: tissue Kidney; for LIVER: tissue Liver; for A/G / ALP / ALT / AST / BUN / CRE / Ca / Cl / DBIL / GLC / IP / K / LDH / Na / PL / RALB / TBIL / TC / TG / TP / gamma-GTP: tissue Plasma

## COc1ccc(Cl)cc1C(=O)NCCc1ccc(S(=O)(=O)NC(=O)NC2CCCCC2)cc1 [GLYBURIDE]
72 h, time 3 day
  TERMINAL_BW: 234.5 g
  APTT: 19.1 s
  Bas: 0%
  Eos: 0.8%
  Fbg: 225.4 mg/dL
  Hb: 13.3 g/dL
  Ht: 39.9%
  Lym: 81.6%
  MCH: 21.1 pg
  MCHC: 33.2%
  MCV: 63.5 fL
  Mono: 2.6%
  Neu: 14.6%
  PT: 12.1 s
  Plat: 124.6 x10_4/uL
  RBC: 628.4 x10_4/ul
  Ret: 6.8%
  WBC: 86.4 x10_2/uL
  KIDNEY_L: 1 g
  KIDNEY_R: 1 g
  KIDNEY_TOTAL: 2 g
  LIVER: 11.7 g
  A/G: 1.7
  ALP: 939.6 IU/L
  ALT: 43.2 IU/L
  AST: 66.4 IU/L
  BUN: 15.2 mg/dL
  CRE: 0.4 mg/dL
  Ca: 10.9 mg/dL
  Cl: 102.4 meq/L
  DBIL: 0.1 mg/dL
  GLC: 207 mg/dL
  IP: 7.4 mg/dL
  K: 4.2 meq/L
  LDH: 159.2 IU/L
  Na: 141 meq/L
  PL: 160.2 mg/dL
  RALB: 3.5 g/dL
  TBIL: 0.2 mg/dL
  TC: 86 mg/dL
  TG: 92.6 mg/dL
  TP: 5.6 g/dL
  gamma-GTP: 1.4 IU/L
[…], time 7 day
  TERMINAL_BW: 268.9 g
  APTT: 18.2 s
  Bas: 0%
  Eos: 0.8%
  Fbg: 217.8 mg/dL
  Hb: 13.7 g/dL
  Ht: 40.6%
  Lym: 79.8%
  MCH: 21.2 pg
  MCHC: 33.7%
  MCV: 63 fL
  Mono: 2.8%
  Neu: 16.2%
  PT: 12.4 s
  Plat: 121.3 x10_4/uL
  RBC: 644.2 x10_4/ul
  Ret: 5.5%
  WBC: 115 x10_2/uL
  KIDNEY_L: 1.2 g
  KIDNEY_R: 1.2 g
  KIDNEY_TOTAL: 2.3 g
  LIVER: 12.7 g
  A/G: 1.5
  ALP: 926.8 IU/L
  ALT: 36.6 IU/L
  AST: 59.8 IU/L
  BUN: 16.8 mg/dL
  CRE: 0.4 mg/dL
  Ca: 10.8 mg/dL
  Cl: 102.8 meq/L
  DBIL: 0.1 mg/dL
  GLC: 217 mg/dL
  IP: 7.3 mg/dL
  K: 3.9 meq/L
  LDH: 129.6 IU/L
  Na: 141.6 meq/L
  PL: 152 mg/dL
  RALB: 3.3 g/dL
  TBIL: 0.2 mg/dL
  TC: 71.6 mg/dL
  TG: 128.2 mg/dL
  TP: 5.5 g/dL
  gamma-GTP: 1 IU/L
[…], time 14 day
  TERMINAL_BW: 320.1 g
  APTT: 21.1 s
  Bas: 0%
  Eos: 0.6%
  Fbg: 223.6 mg/dL
  Hb: 14.1 g/dL
  Ht: 41%
  Lym: 79.8%
  MCH: 20.1 pg
  MCHC: 34.3%
  MCV: 58.5 fL
  Mono: 2.6%
  Neu: 16.4%
  PT: 12.2 s
  Plat: 122.3 x10_4/uL
  RBC: 701 x10_4/ul
  Ret: 4.3%
  WBC: 124.8 x10_2/uL
  KIDNEY_L: 1.2 g
  KIDNEY_R: 1.3 g
  KIDNEY_TOTAL: 2.5 g
  LIVER: 14 g
  A/G: 1.5
  ALP: 785.6 IU/L
  ALT: 36.2 IU/L
  AST: 62.6 IU/L
  BUN: 14 mg/dL
  CRE: 0.5 mg/dL
  Ca: 10.7 mg/dL
  Cl: 102.6 meq/L
  DBIL: 0.1 mg/dL
  GLC: 199.8 mg/dL
  IP: 6.6 mg/dL
  K: 4 meq/L
  LDH: 154.6 IU/L
  Na: 140.4 meq/L
  PL: 155.2 mg/dL
  RALB: 3.6 g/dL
  TBIL: 0.2 mg/dL
  TC: 74.6 mg/dL
  TG: 104.8 mg/dL
  TP: 6 g/dL
  gamma-GTP: 1.2 IU/L
[…], time 28 day
  TERMINAL_BW: 406.6 g
  APTT: 19.9 s
  Bas: 0%
  Eos: 1%
  Fbg: 211 mg/dL
  Hb: 15.1 g/dL
  Ht: 43.1%
  Lym: 83.8%
  MCH: 20.1 pg
  MCHC: 35.1%
  MCV: 57.2 fL
  Mono: 2%
  Neu: 12.8%
  PT: 12.3 s
  Plat: 100.6 x10_4/uL
  RBC: 753.2 x10_4/ul
  Ret: 2.8%
  WBC: 133.4 x10_2/uL
  KIDNEY_L: 1.3 g
  KIDNEY_R: 1.4 g
  KIDNEY_TOTAL: 2.7 g
  LIVER: 17.3 g
  A/G: 1.5
  ALP: 561.8 IU/L
  ALT: 31.4 IU/L
  AST: 60 IU/L
  BUN: 16.8 mg/dL
  CRE: 0.5 mg/dL
  Ca: 10.5 mg/dL
  Cl: 103.8 meq/L
  DBIL: 0.1 mg/dL
  GLC: 214 mg/dL
  IP: 6.6 mg/dL
  K: 3.9 meq/L
  LDH: 143.2 IU/L
  Na: 141.2 meq/L
  PL: 143.8 mg/dL
  RALB: 3.5 g/dL
  TBIL: 0.2 mg/dL
  TC: 75.4 mg/dL
  TG: 91.2 mg/dL
  TP: 5.9 g/dL
  gamma-GTP: 0.8 IU/L

Source: ChEMBL document CHEMBL3885861, “Open TG-GATES”
